Laboratory results from PMC10647589, “Heterogeneous Cellular Response of Primary and Metastatic Human Gastric Adenocarcinoma Cell Lines to Magnoflorine and Its Additive Interaction with Docetaxel” (International Journal of Molecular Sciences, 2023).

What was measured:
Format in all cases: cell-based
ACC-201 human GC cells = assay: Cell cycle analysis (PI, flow cytometry); details: 72 h
Description: (§1) Human GC cells ACC-201, AGS, MKN-74 and NCI-N87 were seeded in 6-well plates and allowed to adhere overnight. On the following day, the growth medium was removed, and the cells were treated with indicated concentrations of MGN (10–40 µg/mL) for 72 h. After that, the cells were washed with phosphate-buffered saline (PBS) and fixed in 70% ethanol at 4 °C overnight. Then, the cells were washed with PBS and stained with propidium iodide, utilizing PI/RNase Staining Buffer (BD Biosciences, Heidelberg, Germany) for 15 min in the dark. Cell distribution in different stages of the cell cycle was performed through the use of the FACS CaliburTM flow cytometer (BD Biosciences, Mountain View, CA, USA).

AGS human GC cells = assay: Cell cycle analysis (PI, flow cytometry); details: 72 h
Description: as §1

MKN-74 human GC cells = assay: Cell cycle analysis (PI, flow cytometry); details: 72 h
Description: as §1

NCI-N87 human GC cells = assay: Cell cycle analysis (PI, flow cytometry); details: 72 h
Description: as §1

[1] = system: human GC cells ACC-201, AGS, MKN-74 and NCI-N87; assay: BrdU incorporation assay; details: MGN 2–75 μg/mL, 72 h, four GC cell lines
Description: The human GC cells ACC-201, AGS, MKN-74 and NCI-N87 were placed in 96-well plates and allowed to adhere overnight. On the following day, the growth medium was replaced with fresh medium, and the cells were exposed to a series of tested MGN dilutions (2.0–75 µg/mL) for 72 h. Cell proliferation was quantified according to the manufacturer’s instruction, Cell Proliferation ELISA, BrdU (colorimetric) (Biorbyt, Cambridge, UK). Briefly, BrdU reagent was added to the medium, followed by Fixative/Denaturing Solution for 30 min at room temperature. Incorporated BrdU in the place of thymidine in the cell’s DNA under division was detected using mouse monoclonal anti-BrdU for 1 h at room temperature, followed by horseradish peroxidase (HRP)-linked goat anti-mouse IgG secondary antibody and tetramethylbenzidine (a HRP substrate) for 30 min at room temperature. The absorbance was measured at 450 nm using Infinite M200 Pro microplate reader (Tecan, Männedorf, Switzerland). Results are presented as a percentage of BrdU incorporation vs. control cells (indicated as 100%).

What does the source list for `COc1ccc2c(c1O)-c1c(O)c(OC)cc3c1[C@H](C2)[N+](C)(C)CC3` [MGN, magnoflorine]?
cells in G1 phase (ACC-201 human GC cells; ACC-201, MGN 10 µg/mL): 62.76% ± 2.434; cells in G2 phase (ACC-201 human GC cells; ACC-201, MGN 10 µg/mL): 9.96% ± 3.707; cells in S phase (ACC-201 human GC cells; ACC-201, MGN 10 µg/mL): 8.74% ± 3.423; cells in subG1 phase (ACC-201 human GC cells; ACC-201, MGN 10 µg/mL): 18.52% ± 1.414; cells in G1 phase (ACC-201 human GC cells; ACC-201, MGN 20 µg/mL): 57.23% ± 2.112; cells in G2 phase (ACC-201 human GC cells; ACC-201, MGN 20 µg/mL): 8.34% ± 4.237; cells in S phase (ACC-201 human GC cells; ACC-201, MGN 20 µg/mL): 8.33% ± 1.647; cells in subG1 phase (ACC-201 human GC cells; ACC-201, MGN 20 µg/mL): 26.06% ± 1.399; cells in G1 phase (ACC-201 human GC cells; ACC-201, MGN 30 µg/mL): 49.55% ± 1.820; cells in G2 phase (ACC-201 human GC cells; ACC-201, MGN 30 µg/mL): 5.87% ± 5.399; cells in S phase (ACC-201 human GC cells; ACC-201, MGN 30 µg/mL): 6.16% ± 1.340; cells in subG1 phase (ACC-201 human GC cells; ACC-201, MGN 30 µg/mL): 38.50% ± 1.886; cells in G1 phase (ACC-201 human GC cells; ACC-201, MGN 40 µg/mL): 39.27% ± 3.408; cells in G2 phase (ACC-201 human GC cells; ACC-201, MGN 40 µg/mL): 3.74% ± 1.615; cells in S phase (ACC-201 human GC cells; ACC-201, MGN 40 µg/mL): 5.61% ± 1.874; cells in subG1 phase (ACC-201 human GC cells; ACC-201, MGN 40 µg/mL): 51.43% ± 2.072; cells in G1 phase (AGS human GC cells; MGN 10 µg/mL): 58.09% ± 8.195; cells in G2 phase (AGS human GC cells; MGN 10 µg/mL): 23.35% ± 12.110; cells in S phase (AGS human GC cells; MGN 10 µg/mL): 17.62% ± 3.599; cells in subG1 phase (AGS human GC cells; MGN 10 µg/mL): 1.19% ± 2.437; cells in G1 phase (AGS human GC cells; MGN 20 µg/mL): 53.06% ± 12.980; cells in G2 phase (AGS human GC cells; MGN 20 µg/mL): 24.06% ± 16.000; cells in S phase (AGS human GC cells; MGN 20 µg/mL): 21.07% ± 2.593; cells in subG1 phase (AGS human GC cells; MGN 20 µg/mL): 2.17% ± 2.519; cells in G1 phase (AGS human GC cells; MGN 30 µg/mL): 43.08% ± 14.330; cells in G2 phase (AGS human GC cells; MGN 30 µg/mL): 31.77% ± 17.630; cells in S phase (AGS human GC cells; MGN 30 µg/mL): 21.55% ± 2.265; cells in subG1 phase (AGS human GC cells; MGN 30 µg/mL): 2.17% ± 3.000; cells in G1 phase (AGS human GC cells; MGN 40 µg/mL): 38.15% ± 13.350; cells in G2 phase (AGS human GC cells; MGN 40 µg/mL): 39.34% ± 15.720; cells in S phase (AGS human GC cells; MGN 40 µg/mL): 19.89% ± 2.653; cells in subG1 phase (AGS human GC cells; MGN 40 µg/mL): 2.98% ± 2.448; effect on cell cycle progression (AGS human GC cells; MGN 10–40 µg/mL): induced the G2/M phase arrest; cells in G1 phase (MKN-74 human GC cells; MKN-74, MGN 10 µg/mL): 69.07% ± 1.886; cells in G2 phase (MKN-74 human GC cells; MKN-74, MGN 10 µg/mL): 16.23% ± 1.928; cells in S phase (MKN-74 human GC cells; MKN-74, MGN 10 µg/mL): 13.36% ± 0.622; cells in subG1 phase (MKN-74 human GC cells; MKN-74, MGN 10 µg/mL): 1.60% ± 2.688; cells in G1 phase (MKN-74 human GC cells; MKN-74, MGN 20 µg/mL): 73.81% ± 4.227; cells in G2 phase (MKN-74 human GC cells; MKN-74, MGN 20 µg/mL): 14.14% ± 2.076; cells in S phase (MKN-74 human GC cells; MKN-74, MGN 20 µg/mL): 9.97% ± 1.867; cells in subG1 phase (MKN-74 human GC cells; MKN-74, MGN 20 µg/mL): 2.28% ± 2.818; cells in G1 phase (MKN-74 human GC cells; MKN-74, MGN 30 µg/mL): 65.90% ± 3.533; cells in G2 phase (MKN-74 human GC cells; MKN-74, MGN 30 µg/mL): 22.92% ± 2.455; cells in S phase (MKN-74 human GC cells; MKN-74, MGN 30 µg/mL): 7.72% ± 1.822; cells in subG1 phase (MKN-74 human GC cells; MKN-74, MGN 30 µg/mL): 3.59% ± 2.787; cells in G1 phase (MKN-74 human GC cells; MKN-74, MGN 40 µg/mL): 50.20% ± 5.303; cells in G2 phase (MKN-74 human GC cells; MKN-74, MGN 40 µg/mL): 35.94% ± 6.691; cells in S phase (MKN-74 human GC cells; MKN-74, MGN 40 µg/mL): 8.25% ± 2.280; cells in subG1 phase (MKN-74 human GC cells; MKN-74, MGN 40 µg/mL): 5.60% ± 1.002; effect on cell cycle progression (MKN-74 human GC cells; MKN-74, MGN 10 and 20 µg/mL vs. 40 µg/mL): induced G1/S or G2/M phase cell cycle arrest; cells in G1 phase (NCI-N87 human GC cells; NCI-N87, MGN 10 µg/mL): 69.39% ± 3.658; cells in G2 phase (NCI-N87 human GC cells; NCI-N87, MGN 10 µg/mL): 16.52% ± 2.770; cells in S phase (NCI-N87 human GC cells; NCI-N87, MGN 10 µg/mL): 11.81% ± 3.808; cells in subG1 phase (NCI-N87 human GC cells; NCI-N87, MGN 10 µg/mL): 2.41% ± 2.189; cells in G1 phase (NCI-N87 human GC cells; NCI-N87, MGN 20 µg/mL): 70.17% ± 2.905; cells in G2 phase (NCI-N87 human GC cells; NCI-N87, MGN 20 µg/mL): 15.56% ± 2.419; cells in S phase (NCI-N87 human GC cells; NCI-N87, MGN 20 µg/mL): 10.44% ± 6.685; cells in subG1 phase (NCI-N87 human GC cells; NCI-N87, MGN 20 µg/mL): 3.93% ± 2.591; cells in G1 phase (NCI-N87 human GC cells; NCI-N87, MGN 30 µg/mL): 67.45% ± 3.535; cells in G2 phase (NCI-N87 human GC cells; NCI-N87, MGN 30 µg/mL): 16.21% ± 1.874; cells in S phase (NCI-N87 human GC cells; NCI-N87, MGN 30 µg/mL): 10.12% ± 7.739; cells in subG1 phase (NCI-N87 human GC cells; NCI-N87, MGN 30 µg/mL): 6.33% ± 2.772; cells in G1 phase (NCI-N87 human GC cells; NCI-N87, MGN 40 µg/mL): 64.37% ± 3.651; cells in G2 phase (NCI-N87 human GC cells; NCI-N87, MGN 40 µg/mL): 17.06% ± 2.426; cells in S phase (NCI-N87 human GC cells; NCI-N87, MGN 40 µg/mL): 9.24% ± 5.603; cells in subG1 phase (NCI-N87 human GC cells; NCI-N87, MGN 40 µg/mL): 9.47% ± 1.163; effect on cell cycle progression (NCI-N87 human GC cells; NCI-N87, MGN 10–40 µg/mL): Minor changes in cell cycle progression; BrdU-labeled DNA (proliferation) [1]: dose-dependent decrease
